{"source": "ChEMBL document CHEMBL1201862", "about": "“PubChem BioAssay data set” (2004)", "key": {"[1]": {"experiment": "HEp-2 cell cytotoxicity, dose response, cytotoxicity control for RSV inhibitor project, HTS (AID 2410)", "assay_type": "functional", "settings": "human respiratory syncytial virus"}, "Kallikrein-7": {"target": "Kallikrein-7 (Homo sapiens, UniProt P49862)", "sequence (P49862 whole entry)": "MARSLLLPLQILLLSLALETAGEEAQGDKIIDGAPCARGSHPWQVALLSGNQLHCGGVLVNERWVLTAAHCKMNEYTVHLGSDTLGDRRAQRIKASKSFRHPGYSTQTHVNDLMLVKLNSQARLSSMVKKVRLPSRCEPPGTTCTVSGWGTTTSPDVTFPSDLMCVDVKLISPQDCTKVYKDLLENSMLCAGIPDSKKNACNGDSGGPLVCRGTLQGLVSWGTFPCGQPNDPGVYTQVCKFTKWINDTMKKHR", "experiment": "Fluorescence Intensity-based biochemical primary high throughput dose response assay to identify activators of kallikrein-7 (K7) zymogen."}, "Galanin receptor type 3": {"target": "T1, Galanin receptor type 3 (Homo sapiens, UniProt O60755)", "T1 sequence (O60755 whole entry)": "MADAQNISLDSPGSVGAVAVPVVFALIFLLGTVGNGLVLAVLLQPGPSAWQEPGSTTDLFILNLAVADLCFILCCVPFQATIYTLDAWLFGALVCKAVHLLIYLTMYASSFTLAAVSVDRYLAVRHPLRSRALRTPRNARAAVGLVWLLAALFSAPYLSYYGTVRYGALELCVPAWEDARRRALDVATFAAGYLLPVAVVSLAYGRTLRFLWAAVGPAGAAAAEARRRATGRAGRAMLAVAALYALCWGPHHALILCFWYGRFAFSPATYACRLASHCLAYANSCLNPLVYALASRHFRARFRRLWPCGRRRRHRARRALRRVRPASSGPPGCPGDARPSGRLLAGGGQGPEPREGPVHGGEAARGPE", "experiment": "Fluorescence-based cell-based primary high throughput dose response assay to identify antagonists of the Galanin Receptor 3 (GalR3).", "assay_type": "functional"}, "cells": {"experiment": "cells", "assay_type": "functional, cell-based", "settings": "HEK-CNG"}, "Paired box protein Pax-8": {"target": "Paired box protein Pax-8 (Homo sapiens, UniProt Q06710)", "sequence (Q06710 whole entry)": "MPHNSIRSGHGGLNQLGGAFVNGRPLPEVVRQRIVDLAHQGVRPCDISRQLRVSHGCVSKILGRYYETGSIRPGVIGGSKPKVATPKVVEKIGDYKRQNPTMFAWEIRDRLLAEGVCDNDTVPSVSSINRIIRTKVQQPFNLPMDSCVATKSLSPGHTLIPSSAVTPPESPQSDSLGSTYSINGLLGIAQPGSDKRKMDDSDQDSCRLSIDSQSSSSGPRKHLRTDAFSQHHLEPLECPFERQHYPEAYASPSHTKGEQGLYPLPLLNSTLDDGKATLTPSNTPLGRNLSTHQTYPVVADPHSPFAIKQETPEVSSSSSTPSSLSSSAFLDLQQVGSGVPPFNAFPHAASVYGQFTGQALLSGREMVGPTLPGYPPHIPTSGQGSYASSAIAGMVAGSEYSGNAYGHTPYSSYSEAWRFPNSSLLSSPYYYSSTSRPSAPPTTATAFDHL", "experiment": "inhibitors of PAX8-driven TPO luciferase reporter, dose response, RMG-I cells, cherry-pick (AID 687027);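 note: luciferase reporter driven by Pax8 target thyroperoxidase promoter measured by SteadyGlo luminescence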", "assay_type": "functional, cell-based"}, "[2]": {"experiment": "PAX2 cell-based inhibition, dose response, selectivity assay for PAX8 inhibitor project, plate reader, dry powder samples (AID 743048);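 note: HEK293 cells carrying a WT1 promoter luciferase reporter driven by expressed Pax2; potency is for inhibition of Pax2 driven reporter signal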", "assay_type": "functional"}, "[3]": {"experiment": "NIH:OVCAR-3 ovarian cancer cell cytotoxicity, dose response, PAX8 inhibitor project, plate reader, dry powder samples (AID 743044)", "assay_type": "functional, cell-based"}, "[4]": {"experiment": "PAX5 activity inhibitors, dose response, selectivity assay for PAX8 inhibitor project, cell-based, plate reader, dry powder samples (AID 743047);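 note: HEK293 cells carrying a Pax5 driven CD19 promoter luciferase reporter; potency of inhibitors that lower reporter luminescence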", "assay_type": "functional"}, "[5]": {"experiment": "cytotoxicity in COV434 cells, dose response, cytotoxicity control for PAX8 inhibitor project, cell-based, plate reader, dry powder, SA7 (AID 743145)", "assay_type": "functional"}, "[6]": {"experiment": "cytotoxicity in OV-90 ovarian cancer cells, dose response, PAX8 inhibitor project, cell-based, plate reader, dry powder, SA8 (AID 743149)", "assay_type": "functional"}, "[7]": {"experiment": "cytotoxicity dependent on PAX8, dose response, cell-based, plate reader, dry powder (AID 743049)", "assay_type": "functional"}, "[8]": {"target": "T2, Methionyl-tRNA synthetase, putative (Trypanosoma brucei brucei, UniProt Q38C91)", "T2 sequence (Q38C91 whole entry)": "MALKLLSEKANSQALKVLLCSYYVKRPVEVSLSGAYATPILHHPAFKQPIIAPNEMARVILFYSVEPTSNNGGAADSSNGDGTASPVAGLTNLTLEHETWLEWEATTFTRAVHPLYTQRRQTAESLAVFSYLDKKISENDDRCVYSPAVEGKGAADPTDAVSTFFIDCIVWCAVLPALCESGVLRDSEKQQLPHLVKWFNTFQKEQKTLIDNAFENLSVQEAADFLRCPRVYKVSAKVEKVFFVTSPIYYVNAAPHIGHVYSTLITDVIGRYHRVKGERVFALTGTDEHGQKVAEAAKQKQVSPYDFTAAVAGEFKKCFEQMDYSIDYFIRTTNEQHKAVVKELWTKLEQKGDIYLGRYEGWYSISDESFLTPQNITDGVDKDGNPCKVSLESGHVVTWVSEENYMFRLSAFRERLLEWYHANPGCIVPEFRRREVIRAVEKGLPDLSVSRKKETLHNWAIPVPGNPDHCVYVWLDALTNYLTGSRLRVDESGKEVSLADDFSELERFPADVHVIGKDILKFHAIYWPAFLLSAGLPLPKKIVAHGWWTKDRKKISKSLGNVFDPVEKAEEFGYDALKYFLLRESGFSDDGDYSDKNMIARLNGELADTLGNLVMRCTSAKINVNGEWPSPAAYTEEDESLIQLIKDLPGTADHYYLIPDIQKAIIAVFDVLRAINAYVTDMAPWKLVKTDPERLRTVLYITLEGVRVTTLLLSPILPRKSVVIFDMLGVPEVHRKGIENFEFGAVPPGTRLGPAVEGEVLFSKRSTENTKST", "assay_type": "functional, Trypanosoma brucei brucei strain 927/4 GUTat10.1"}, "[9]": {"experiment": "Counterscreen for inhibitors of Trypanosoma brucei methionyl tRNA synthetase (MetRS): Luminescence-based cell-based high throughput dose response assay to identify compounds that are cytotoxic to Jurkat human T lymphocyte cells.", "assay_type": "functional"}, "[10]": {"target": "T2, Methionyl-tRNA synthetase, putative", "assay_type": "functional, Trypanosoma brucei brucei strain 927/4 GUTat10.1", "remark": "listed apart in the source"}, "Beta-galactosidase": {"target": "Beta-galactosidase (Escherichia coli, UniProt Q8VNN2)", "sequence (Q8VNN2 whole entry)": "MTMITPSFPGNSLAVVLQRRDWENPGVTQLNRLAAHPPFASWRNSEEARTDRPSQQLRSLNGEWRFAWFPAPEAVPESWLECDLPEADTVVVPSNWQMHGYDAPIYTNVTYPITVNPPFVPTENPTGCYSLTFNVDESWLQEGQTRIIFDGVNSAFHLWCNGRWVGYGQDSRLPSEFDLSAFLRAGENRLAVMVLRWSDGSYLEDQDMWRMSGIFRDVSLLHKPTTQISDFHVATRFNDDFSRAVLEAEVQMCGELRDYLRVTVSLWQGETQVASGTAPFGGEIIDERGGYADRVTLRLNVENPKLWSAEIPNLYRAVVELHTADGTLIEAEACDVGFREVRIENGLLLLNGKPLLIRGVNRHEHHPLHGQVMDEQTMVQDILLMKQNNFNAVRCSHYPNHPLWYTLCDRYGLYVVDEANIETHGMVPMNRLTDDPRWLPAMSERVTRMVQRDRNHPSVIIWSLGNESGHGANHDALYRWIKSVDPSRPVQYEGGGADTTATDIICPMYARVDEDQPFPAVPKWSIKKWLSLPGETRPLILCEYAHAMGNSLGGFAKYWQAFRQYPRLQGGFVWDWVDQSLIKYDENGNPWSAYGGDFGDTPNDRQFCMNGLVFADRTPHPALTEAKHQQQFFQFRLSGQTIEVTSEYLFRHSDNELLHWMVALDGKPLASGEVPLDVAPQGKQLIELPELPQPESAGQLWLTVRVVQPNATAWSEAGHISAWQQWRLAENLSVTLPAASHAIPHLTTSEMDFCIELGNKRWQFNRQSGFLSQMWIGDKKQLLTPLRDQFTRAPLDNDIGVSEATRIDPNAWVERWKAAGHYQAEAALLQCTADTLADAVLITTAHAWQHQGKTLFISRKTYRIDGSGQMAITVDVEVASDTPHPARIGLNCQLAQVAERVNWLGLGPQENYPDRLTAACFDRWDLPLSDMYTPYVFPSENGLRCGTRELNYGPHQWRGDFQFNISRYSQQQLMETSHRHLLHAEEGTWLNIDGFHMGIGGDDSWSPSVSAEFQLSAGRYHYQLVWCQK", "experiment": "Dose response counterscreen for EBI2 assay utilizing the enzyme, b-galactosidase.", "assay_type": "functional"}, "[11]": {"experiment": "inhibitors of PGC1a acetylation in cells, dose response, cell-based, cherry-picked samples (AID 720514);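 note: potency may reflect raised or lowered acetylation signal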", "assay_type": "functional"}, "[12]": {"target": "FAD-linked sulfhydryl oxidase ALR (Homo sapiens, UniProt P55789)", "sequence (P55789 whole entry)": "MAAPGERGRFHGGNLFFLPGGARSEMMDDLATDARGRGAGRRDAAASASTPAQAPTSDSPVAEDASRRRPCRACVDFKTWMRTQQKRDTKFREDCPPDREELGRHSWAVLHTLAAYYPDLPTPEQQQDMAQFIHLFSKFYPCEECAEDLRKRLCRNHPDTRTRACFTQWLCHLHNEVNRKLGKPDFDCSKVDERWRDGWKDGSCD", "experiment": "inhibitors of human ALR sulfhydryl oxidase, dose response, biochemical, H2O2 detection, luminescence, cherry-pick (AID 493248)"}, "[13]": {"experiment": "HeLa cell cytotoxicity, dose response, cytotoxicity control for MgcRacGAP inhibitor project (AID 624300)", "assay_type": "functional"}, "[14]": {"target": "T3, Rac GTPase-activating protein 1 (Homo sapiens, UniProt Q9H0H5)", "T3 sequence (Q9H0H5 whole entry)": "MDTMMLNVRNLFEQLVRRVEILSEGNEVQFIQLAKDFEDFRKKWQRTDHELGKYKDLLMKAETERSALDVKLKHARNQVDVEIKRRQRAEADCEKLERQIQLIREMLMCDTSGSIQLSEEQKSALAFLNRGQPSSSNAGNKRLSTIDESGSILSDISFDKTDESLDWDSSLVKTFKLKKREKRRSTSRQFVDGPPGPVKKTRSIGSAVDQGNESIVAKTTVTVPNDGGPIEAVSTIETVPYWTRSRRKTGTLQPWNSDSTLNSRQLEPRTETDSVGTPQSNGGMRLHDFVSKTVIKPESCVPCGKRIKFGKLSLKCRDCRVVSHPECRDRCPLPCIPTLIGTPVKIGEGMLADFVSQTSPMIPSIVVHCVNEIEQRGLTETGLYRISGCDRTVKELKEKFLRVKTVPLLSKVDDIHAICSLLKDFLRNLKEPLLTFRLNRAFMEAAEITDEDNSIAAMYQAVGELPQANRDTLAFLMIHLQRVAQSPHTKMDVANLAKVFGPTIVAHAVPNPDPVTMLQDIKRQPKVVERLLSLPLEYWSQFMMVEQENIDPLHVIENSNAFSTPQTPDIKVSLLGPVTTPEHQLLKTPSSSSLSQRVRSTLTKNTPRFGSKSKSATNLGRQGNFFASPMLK", "experiment": "MgcRacGAP GTPase-activating activity inhibitors, confirmation, biochemical, ADP Hunter fluorescence, primary and confirmatory (AID 624330)", "assay_type": "functional"}}, "note": "The source made the active and inactive calls."}
{"compound": "CCN(CC)c1ccc2c(C)c(CO)c(=O)oc2c1", "values": [{"measurement": "CC50", "setting": "[1]", "result": "> 50 µM (active)"}, {"measurement": "EC50", "setting": "Kallikrein-7", "result": "6.34 µM (active)"}]}
{"compound": "CCCCC[C@H](O)/C=C/[C@H]1CCC(=O)[C@@H]1CCCCCCC(=O)N1CCCCC1CO", "note": "(stereo partly drawn)", "values": [{"measurement": "IC50", "setting": "Galanin receptor type 3", "result": "3.54 µM (active)"}, {"measurement": "EC50", "setting": "cells", "result": "> 29.9 µM (inactive)"}]}
{"compound": "Cc1ccc(S(=O)(=O)Nc2ccc3c(c2)nc(CCN2CCCC2)n3C)cc1", "values": [{"measurement": "AC50", "setting": "Paired box protein Pax-8", "result": "5.89 µM (active)"}, {"measurement": "AC50", "setting": "[2]", "result": "> 100 µM (inactive)"}, {"measurement": "AC50", "setting": "[3]", "result": "34.1 µM (active)"}, {"measurement": "AC50", "setting": "[4]", "result": "> 100 µM (inactive)"}, {"measurement": "AC50", "setting": "[5]", "result": "26.4 µM (active)"}, {"measurement": "AC50", "setting": "[6]", "result": "45.2 µM (active)"}, {"measurement": "AC50", "setting": "[7]", "result": "50.6 µM (active)"}]}
{"compound": "CC(=O)NS(=O)(=O)c1ccc(NC(=O)/C=C/c2cn(-c3ccccc3)nc2-c2ccccc2)cc1", "values": [{"measurement": "IC50", "setting": "[8]", "result": "49.8 µM (inactive)"}, {"measurement": "IC50", "setting": "[9]", "result": "83.3 µM (inactive)"}, {"measurement": "IC50", "setting": "[10]", "result": "12 µM (inactive)"}]}
{"compound": "CCOC(=O)c1cnc2c(C(=O)OC)cccc2c1NCc1ccco1", "values": [{"measurement": "EC50", "setting": "Kallikrein-7", "result": "> 69.5 µM (inactive)"}]}
{"compound": "O=C(/C=C/c1cccs1)N1CCC2(CC1)Oc1ccc(Cl)cc1C(=O)C21CC(c2ccccc2)=NO1", "note": "(stereo not drawn)", "values": [{"measurement": "IC50", "setting": "Beta-galactosidase", "result": "> 80 µM (inactive)"}]}
{"compound": "CC(C)CC#Cc1ccc([C@H]2[C@H](CO)N3C(=O)CN(C(=O)Nc4cc(F)ccc4F)C[C@@H]23)cc1", "values": [{"measurement": "AC50", "setting": "[11]", "result": "27.6 µM (active)"}]}
{"compound": "COc1cc(/C=N/Nc2nc3ccccc3[nH]2)ccc1O", "values": [{"measurement": "AC50", "setting": "[12]", "result": "1.16 µM (active)"}, {"measurement": "IC50", "setting": "[8]", "result": "23.7 µM (inactive)"}, {"measurement": "IC50", "setting": "[9]", "result": "83.3 µM (inactive)"}, {"measurement": "IC50", "setting": "[10]", "result": "102 µM (inactive)"}, {"measurement": "CC50", "setting": "[13]", "result": "100 µM (active)"}, {"measurement": "IC50", "setting": "[14]", "result": "14 µM (active)"}]}
